Measurements as given in US20260355199A1, “COMPOSITIONS AND METHODS FOR TREATING OR PREVENTING NONALCOHOLIC STEATOHEPATITIS (NASH), ANOREXIA, DEPRESSION, ENDOMETRIOSIS, AND OTHER DISEASES OR DISORDERS” (priority 2022, published 2026).
“Also recorded” adds a separate entry of the source.

Legend:
[1] = tested on: Bcl2l11, Bid and Pmaip1; experiment: Pro-apoptosis gene expression in mouse peritoneal macrophages; assay type: cell-based; settings: TGF-b1 primed mouse peritoneal macrophages, 10 μM, 48 h
Experimental: For cultured mouse peritoneal macrophages, cells were primed with 30 ng/ml of TGF-β1 (R&D Systems, 7666-MB0-005) for 48 h (to increase TET3 expression) before Bobcat339 treatment. Bobcat339 (or DMSO) was added at a final concentration of 10 μM, followed by RNA and protein extraction at time points indicated in the figure legends.
Total RNAs were extracted from cells using PureLink RNA Mini Kit. 0.5-1 μg total RNA was reverse transcribed to cDNA in a reaction volume of 20 μL using PrimeScript RT Reagent Kit. Real-time quantitative PCR was performed in a 15 μL reaction volume containing 0.5-1 μL of cDNA using SsoAdvanced Universal SYBR Green Supermix in a Bio-Rad iCycler. Gene expression levels were normalized against RPLP0.

[2] = tested on: TET3; experiment: TET3 protein stability (cycloheximide) in RAW 264.7 cells; assay type: cell-based, mouse; settings: 10 μM, with cycloheximide
Experimental: For TET3 protein stability assay, cells in 24-well plates were incubated with vehicle or Bobcat339 at a final concentration of 10 μM for 3 hours, followed by addition of cycloheximide (CHX, Cell Signaling, 2112) at a final concentration of 50 μg/mL in the presence of 10 μM of Bobcat339. Proteins were harvested at 0, 1, 2, and 3 hours after addition of CHX.

[3] = tested on: TET3; settings: Lv et al., 2023; cited from earlier work
[4] = tested on: TET3; experiment: TET3 protein in SH-SY5Y human neuronal cells; assay type: cell-based
Excerpt: Mouse GT1-7 hypothalamic neuronal cell line (Sigma-Aldrich, SCC116) and human SH-SY5Y neuroblastoma cell line (Sigma Aldrich, 94030304) were purchased and cultured according to the manufacturers' instructions. Purified Ad-TET3 adenovirus (Ad-FLAG.h-TET3, ADV-225322, Vector Biolabs) expressing human TET3 from a CMV promoter and Ad-GFP control adenovirus (1060, Vector Biolabs) were purchased.
For Bobcat339 treatment (FIG. 15A and FIG. 15B), GT1-7 cells grown in 24-well plates at 2×10^5 cells/well were incubated with vehicle or Bobcat339 at a final concentration of 10 μM for 6 h, followed by RNA and protein extractions. For TET3 protein stability assay (FIG. 15B), GT1-7 cells in 24-well plates at 2×10^5 cells/well were incubated with vehicle or Bobcat339 at a final concentration of 10 μM for 3 hours, followed by addition of cycloheximide (CHX, Cell Signaling, 2112) at a final concentration of […] in the presence of 10 μM of Bobcat339. Proteins were harvested at 0, 1, 2, and 3 hours after addition of CHX. For TET3 expression restoration experiments (FIG. 15C and FIG. 15D), GT1-7 or SH-SY5Y cells seeded in 24-well plates at 2×10^5 cells/well were infected with Ad-GFP or Ad-TET3 at 4000 gc/cell. Following 16 h of infection, vehicle or Bobcat339 were added at a final concentration of 10 μM. Protein and RNA were isolated 48 h later and analyzed. […]

[5] = tested on: TET3; experiment: TET3 protein in human MDMs; assay type: cell-based; settings: 24 h
Experimental: For siRNA transfection in a 24-well plate scale of MDMs, NT siRNA or TET3 siRNA (4392420/s47239, Ambion) was mixed with 25 μL of OPTI-MEM by gentle pipetting. In parallel, 1.5 μL of Lipofectamine RNAiMAX was mixed with 25 μL of OPTI-MEM by gentle pipetting. Following 5 min of incubation at RT, the resulting 50 μl of transfection solution was added to each well of cells containing 450 μL of growth media.
Bobcat339 Treatment of Cultured Cells Bobcat339 powder (Sigma-Aldrich, SML2611) was freshly dissolved in DMSO at a concentration of 5 mM and filtered through a 0.22 micron. […]
For cultured MDMs, cells were primed with CM-Endo or TGF-β1 (PeproTech, 100-21) for 36-48 h (to increase TET3 expression) before Bobcat339 treatment.
Cells were homogenized in situ using a pipette tip in 2×SDS-sample buffer with 10% β-mercaptoethanol at RT followed by heating at 100 °C for 5 min with occasional vortexing. The samples were loaded onto a 4-15% gradient SDS gel (Bio-rad, 456-8086) (10 μL/well) and transferred to nitrocellulose membranes, followed by Western blot analysis. […]

Nc1nc(=O)n(-c2cccc(-c3ccccc3)c2)cc1Cl [Bobcat339, 4-Amino-1-[1,1′-biphenyl]-3-yl-5-chloro-2(1H)-pyrimidinone]
Bcl2l11, Bid and Pmaip1 expression [1]: an upregulation of all three pro-apoptosis genes
TET3 protein stability [2]: less stable
half-life of TET3 ([2]; RAW): ~ 80 minutes
half-life of TET3 ([2]; macrophages): ~ 80 min
minimal effective concentration [3]: 10 µM
TET3 protein level / degradation [4]: induced protein degradation of TET3
TET3 protein level ([5]; 10 μM): a decrease in TET3 expression; also recorded: decreased the level of TET3 protein
steady-state level of TET3 protein ([5]; 10 mM (so in the source)): a decrease in the steady-state level of TET3 protein
